Measurements as given in patent US20060199867A1, “Ambroxol for the treatment of chronic pain” (Boehringer Ingelheim Pharma GmbH, priority 2002, published 2006).
pIC50: −log10 of the molar value. Where a name gives a salt, the structure may show the parent alone.

Tests used:
[1] = test system: neuropathic pain (tactile allodynia, thermal hyperalgesia); assay: test models for neuropathic pain in the rat; type: in vivo; details: neuropathic pain models in the rat (Bennett and Xie; Seltzer et al.)
Excerpt: (1) Bennett G J and Xie Y-K. A peripheral mononeuropathy in rat that produces disorders of pain sensation like those seen in man. Pain 33, 87-107, […]. (2) Seltzer, Z., Dubner R. and Shir, Y. A novel behavioral model of neuropathic pain disorder. Pain 43, 205-218, 1990.

[2] = test system: Tetrodotoxin-sensitive currents; type: cell-based, rat; details: read-out: IC50 tetrodotoxin-sensitive currents; neurone cultures from the posterior root ganglions of adult rats
[3] = test system: formalin-induced nociceptive behaviors (flinches, licking); assay: Formalin Paw Test; type: in vivo; details: Rattus norvegicus, po, male rats, dose at which control values are inhibited by 50%
Description: Formalin Paw Test (Ref: Carlton S M and Zhou S: Attenuation of formalin-induced nociceptive behaviors following local peripheral injection of gabapeptin. Pain 76, 201-207, 1998). Male rats (Chbb: THOM) weighing 250-300 grams are used. 20 μl of a 2% formaldehyde solution is injected into the plantar region of the right hind paw. Immediately after, the number of flinches (twitches of the affected hind paw) and the length of time spent licking the affected paw are recorded over a period of one hour. After 5 minutes in each case the values are grouped together into epochs. From the epoch values, time-effect curves for flinches and licking are plotted. Typically, two phases of formalin effect are observed (flinches, licking). A first phase lasting 0-10 minutes and a second phase lasting 10-60 minutes. Between the two phases the number of flinches and duration of licking fall towards 0 (interphase). From the time-effect curves the areas under the curve for the first phase and for the second phase are determined. Usually, 5 animals are used for each control, placebo and dose of substance. The results of the doses of substance are compared with those of the controls and ED50 values are calculated. The ED50 is the dose at which the control values are inhibited by 50%.

Q: With `Nc1c(Br)cc(Br)cc1CN[C@H]1CC[C@H](O)CC1` [ambroxol, trans-4-(2-amino-3,5-dibrombenzylamino)-cyclohexanol] as the compound, how does the tactile allodynia [1] read?
A: reduced the tactile allodynia

Q: And the thermal hyperalgesia [1]?
A: reduced

Q: What about the pIC50 [2] of the same compound?
A: < 4.00

Q: For `Nc1c(Br)cc(Br)cc1CN[C@H]1CC[C@H](O)CC1` [ambroxol hydrochloride], which ED50 [3] is on record?
A: 70 mg/kg
